Read-outs that look alike come from different tables or passages of the source.
Key:
Type in all cases: in vivo
[1] = tested on: Avena fatua (AVEFA); assay: Pre-emergence herbicidal action against AVEFA; settings: 320 g/ha, visual scoring after about 3 weeks vs untreated controls
In short: (§1)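 Application rates ran to 320 g/ha or lower, with several dosages tested on the same weeds. The compound, as wettable powder or emulsion concentrate, is sprayed pre-emergence onto soil over sown seeds; greenhouse growth follows, and effect is rated visually after roughly 3 weeks.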

[2] = tested on: Polygonum convolvulus (POLCO); assay: Post-emergence herbicidal action against POLCO; settings: dosage 80 g/ha
In short: (§2)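 Doses of 320 g/ha or lower, suffixes a, b and c marking different dosages, were applied post-emergence at the one-leaf stage in 600 l/ha water with 0.5% additive. Damage was assessed visually after about 3 weeks in the greenhouse.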

[3] = tested on: Pharbitis purpurea (PHBPU); assay: Post-emergence herbicidal action against PHBPU; settings: dosage 80 g/ha
In short: as §2

[4] = tested on: Avena fatua (AVEFA); assay: Post-emergence herbicidal action against AVEFA; settings: 80 g/ha, visual rating about 3 weeks after treatment
In short: as §2

[5] = tested on: Echinochloa crus-galli (ECHCG); assay: Pre-emergence herbicidal action against ECHCG; settings: dosage 320 g/ha
In short: as §1

[6] = tested on: Pharbitis purpurea (PHBPU); assay: Pre-emergence herbicidal action against PHBPU; settings: dosage 320 g/ha
In short: as §1

[7] = tested on: Alopecurus myosuroides (ALOMY); assay: Post-emergence herbicidal action against ALOMY; settings: 80 g/ha, visual rating about 3 weeks after treatment vs untreated controls (100% = plants have died, 0% = like control plants)
In short: as §2

[8] = tested on: Matricaria inodora (MATIN); assay: Pre-emergence herbicidal action against MATIN; settings: dosage 320 g/ha
In short: as §1

[9] = tested on: Alopecurus myosuroides (ALOMY); assay: Pre-emergence herbicidal action against ALOMY; settings: scored visually after about 3 weeks, 100% = plants have died
In short: as §1

[10] = tested on: Amaranthus retroflexus (AMARE); assay: Pre-emergence herbicidal action against AMARE; settings: visual scoring after about 3 weeks vs untreated controls
In short: as §1

[11] = tested on: Verconica persica (VERPE); assay: Post-emergence herbicidal action against VERPE; settings: dosage 80 g/ha
In short: as §2

[12] = tested on: Zea mays (ZEAMX)
In short: (§3)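 Effects were read visually as % versus untreated controls (0% = no effect, 100% = death) about 3 weeks post-treatment. Application was a post-emergence spray at the one-leaf stage of WP/EC formulations with 0.5% additive at 600 l/ha. Different dosages are denoted a, b and c.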

[13] = tested on: Oryza sativa (ORYSA); settings: crop plant compatibility
In short: as §3

[14] = tested on: Amaranthus retroflexus (AMARE); assay: Post-emergence herbicidal action against AMARE; settings: 80 g/ha, visual rating about 3 weeks after treatment vs untreated controls (100% = plants have died, 0% = like control plants)
In short: as §2

[15] = tested on: Verconica persica (VERPE); assay: Pre-emergence herbicidal action against VERPE
In short: as §1

[16] = tested on: Polygonum convolvulus (POLCO); assay: Pre-emergence herbicidal action against POLCO
In short: as §1

[17] = tested on: Abutilon theophrasti (ABUTH); assay: Post-emergence herbicidal action against ABUTH; settings: 80 g/ha, visual rating about 3 weeks after treatment vs untreated controls (100% = plants have died, 0% = like control plants)
In short: as §2

[18] = tested on: Digitaria sanguinalis (DIGSA); assay: Post-emergence herbicidal action against DIGSA; settings: 80 g/ha, visual rating about 3 weeks after treatment
In short: as §2

[19] = tested on: Viola tricolor (VIOTR); assay: Post-emergence herbicidal action against VIOTR; settings: 80 g/ha
In short: as §2

[20] = tested on: Digitaria sanguinalis (DIGSA); assay: Pre-emergence herbicidal action against DIGSA
Text: Seeds of monocotyledonous and dicotyledonous weed plants and crop plants are placed in plastic or organic planting pots and covered with soil. The compounds of the invention, formulated in the form of wettable powders (WP) or as emulsion concentrates (EC), are then applied to the surface of the covering soil as aqueous suspension or emulsion with addition of 0.5% additive at a water application rate equivalent to 600 l/ha. After the treatment, the pots are placed in a greenhouse and kept under good growth conditions for the trial plants. After about 3 weeks, the effect of the preparations is scored visually in comparison with untreated controls as percentages. For example, 100% activity=the plants have died, 0% activity=like control plants.
Tables A1 to A13 below show the effects of selected compounds of the general formula (I) on various harmful plants and at an application rate corresponding to 320 g/ha or lower, which were obtained by the experimental procedure mentioned above. The appendices “a”, “b” and “c” give differentiation by dosage used with otherwise the same harmful plants tested.

[21] = tested on: Viola tricolor (VIOTR); assay: Pre-emergence herbicidal action against VIOTR
In short: as §1

[22] = tested on: Lolium rigidum (LOLRI); assay: Pre-emergence herbicidal action against LOLRI
In short: as §1

[23] = tested on: Setaria viridis (SETVI); assay: Pre-emergence herbicidal action against SETVI
In short: as §1

[24] = tested on: Echinochloa crus-galli (ECHCG); assay: Post-emergence herbicidal action against ECHCG; settings: dosage 80 g/ha
In short: as §2

[25] = tested on: Setaria viridis (SETVI); assay: Post-emergence herbicidal action against SETVI; settings: dosage 80 g/ha
In short: as §2

[26] = 80 g/ha, visual scoring after about 3 weeks vs untreated controls

Row | Structure (SMILES) | Pre-emergence action against AVEFA in % [1] [%] | Post-emergence action against POLCO in % [2] [%] | Post-emergence action against PHBPU in % [3] [%] | Pre-emergence action against ECHCG in % [5] [%] | Pre-emergence action against PHBPU in % [6] [%] | Post-emergence action against ALOMY in % [7] [%] | Pre-emergence action against MATIN in % [8] [%] | Pre-emergence action against ALOMY ([9]; 80 g/ha) [%] | Pre-emergence action against ALOMY ([9]; 320 g/ha) [%] | Pre-emergence action against AMARE in % ([10]; 80 g/ha) [%] | Pre-emergence action against AMARE in % ([10]; 320 g/ha) [%] | Post-emergence action against VERPE in % [11] [%] | Post-emergence action against AMARE in % [14] [%] | Pre-emergence action against VERPE in % ([15]; dosage 320 g/ha) [%] | Pre-emergence action against POLCO in % ([16]; dosage 80 g/ha) [%] | Pre-emergence action against POLCO in % ([16]; dosage 320 g/ha) [%] | Post-emergence action against ABUTH in % [17] [%] | Post-emergence action against DIGSA in % [18] [%] | Pre-emergence action against DIGSA in % [20, 26] [%] | Pre-emergence action against DIGSA in % ([20]; dosage 320 g/ha) [%] | other results
1 | CCOC(=O)COc1nn(-c2ncccc2F)c(-c2ccc(F)nc2)c1C(F)(F)F [Example I-56] | 100 | 80 | 80 | 100 | 90 | 90 | 100 | 100 | 100 | 100 | 100 | 80 | 80 | 100 | 80 | 90 | 80 | 90 | 100 | 100 | Post-emergence action against AVEFA in % [4]: 80%; Post-emergence action against ZEAMX in % (crop plant compatibility) ([12]; 20 g/ha, ZEAMX, effect in comparison to untreated controls): 0%; Post-emergence action against ZEAMX in % ([12]; crop plant compatibility, 80 g/ha, effect vs untreated controls): 0%; Post-emergence action against ORYSA in % ([13]; 20 g/ha, effect vs untreated controls): 0%; Post-emergence action against ORYSA in % ([13]; 80 g/ha, effect in comparison to untreated controls): 0%; Post-emergence action against VIOTR in % [19]: 80%; Pre-emergence action against VIOTR in % ([21]; 320 g/ha, Viola tricolor): 100%; Pre-emergence action against VIOTR in % ([21]; dosage 80 g/ha): 100%; Pre-emergence action against LOLRI in % ([22]; dosage 80 g/ha): 100%; Pre-emergence action against LOLRI in % ([22]; dosage 320 g/ha): 100%; Pre-emergence action against SETVI in % ([23]; dosage 320 g/ha): 100%
2 | COCCOCCOC(=O)COc1nn(-c2ncccc2F)c(-c2ccc(F)nc2)c1Br [Example I-37] | 90 | 80 | 80 | 100 | 90 | 90 | 100 | 100 | 100 | 100 | 100 | 80 | 90 | 100 | 80 | 90 | 80 | 90 | 100 | 100 | Post-emergence action against ECHCG in % [24]: 80%; Post-emergence action against SETVI in % [25]: 80%; Pre-emergence action against VERPE in % ([15]; dosage 80 g/ha): 80%; Pre-emergence action against VIOTR in % ([21]; 320 g/ha, Viola tricolor): 100%; Pre-emergence action against VIOTR in % ([21]; dosage 80 g/ha): 100%; Pre-emergence action against LOLRI in % ([22]; dosage 80 g/ha): 80%; Pre-emergence action against LOLRI in % ([22]; dosage 320 g/ha): 100%; Pre-emergence action against SETVI in % ([23]; dosage 80 g/ha): 100%; Pre-emergence action against SETVI in % ([23]; dosage 320 g/ha): 100%

Reference: patent US20240041042A1, “1-(PYRIDYL)-5-AZINYLPYRAZOLE DERIVATIVES, AND THEIR USE FOR CONTROL OF UNDESIRED PLANT GROWTH” (Bayer Aktiengesellschaft, priority 2020, published 2024)
